Structures can show the parent of a compound that is named as a salt. Where two headings read alike, the source gives them in different places.
Target: T1, cPLA2 crudely purified from the cytoplasm fraction of U937 (Homo sapiens, UniProt P47712)
T1 construct: cPLA2 crudely purified from the cytoplasm fraction of U937; endogenous in cells; host or cells: U937 cells (cytoplasm fraction, crude purification)
T1 sequence (P47712 1-749): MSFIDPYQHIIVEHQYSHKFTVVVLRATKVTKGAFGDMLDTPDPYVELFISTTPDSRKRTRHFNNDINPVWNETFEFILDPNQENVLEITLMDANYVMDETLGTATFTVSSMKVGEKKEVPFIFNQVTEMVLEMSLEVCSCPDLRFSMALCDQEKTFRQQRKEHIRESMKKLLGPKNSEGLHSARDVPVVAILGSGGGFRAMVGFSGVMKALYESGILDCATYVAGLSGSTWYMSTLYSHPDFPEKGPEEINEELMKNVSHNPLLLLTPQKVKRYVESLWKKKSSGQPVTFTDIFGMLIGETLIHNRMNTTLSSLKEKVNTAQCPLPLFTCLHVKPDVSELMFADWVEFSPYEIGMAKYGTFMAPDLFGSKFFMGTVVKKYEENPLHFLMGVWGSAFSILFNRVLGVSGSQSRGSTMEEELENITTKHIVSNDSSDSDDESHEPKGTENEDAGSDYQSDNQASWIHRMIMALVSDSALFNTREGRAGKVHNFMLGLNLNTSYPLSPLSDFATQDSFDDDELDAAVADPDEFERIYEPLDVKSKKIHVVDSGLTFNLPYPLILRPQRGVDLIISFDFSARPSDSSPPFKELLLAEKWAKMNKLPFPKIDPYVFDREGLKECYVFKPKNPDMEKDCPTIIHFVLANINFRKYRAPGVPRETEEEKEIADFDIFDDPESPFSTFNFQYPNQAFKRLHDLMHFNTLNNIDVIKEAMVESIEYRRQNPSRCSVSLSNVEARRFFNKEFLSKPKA
Assay: Measurement of cPLA2 inhibitory activity (release of [14C]-arachidonic acid from phosphatidyl choline liposome)
Assay type: biochemical
Experimental: The cPLA2 inhibitory activity was measured based on the method described in the document [See H. Naraba et al., J. Immunol. 160, 2974-2982 (1998)] and modified in the following way.
A DMSO solution of the present invitation compounds was diluted to 2.5 times the final concentration with the assay buffer (4 mM CaCl2, 2 mM dithiothreitol, 150 mM NaCl, 50 mM HEPES buffer solution (pH7.5)) containing 0.55 mg/ml BSA. To 20 μl of this, cPLA2 crudely purified from the cytoplasm fraction of U937 was added in an amount of 10 μl after dilution by an assay buffer solution containing 0.55 mg/ml BSA. A liposome prepared by ultrasonically treating L-α-1-palmitoyl-2-[14C]arachidonyl-phosphatidyl choline (made by PerkinElmer) and adjusted by the assay buffer solution to a concentration of phosphatidyl choline of 10 μM was added and stirred in by an amount of 20 μl and the mixture was reacted at 37° C. for 60 minutes. The [^14C]-arachidonic acid released due to the reaction was extracted based on the method described in the documents [see V. P. Dole et al., J. Biol. Chem. 235, 2595 (1960)], was added to Lumaplate® (made by PerkinElmer), dried, then measured by Topcount® (made by PerkinElmer). Except for not adding the present invention compounds, the same procedure was performed as the above to obtain the enzyme control. Except for not adding the invention compounds and not adding the enzyme, the same procedure was followed as above to obtain a negative control. The inhibiting activity was expressed as a percent (%) of the value minus the negative control with respect to the value of the enzyme control minus the negative control. From this, the 50% inhibiting concentration (IC50, μM) was calculated.

[1] = cPLA2 from U937 cytoplasm fraction, [14C]arachidonyl-phosphatidyl choline liposome, 37° C., 60 minutes, read-out: cPLA2 inhibitory activity, 50% inhibiting concentration IC50

SMILES	IC50	IC50 [1]
O=C(O)/C=C/c1ccc2c(c1)c(C(=O)c1ccccc1)cn2-c1ccccc1 [Example 3, (2E)-3-(3-benzoyl-1-phenyl-1H-indol-5-yl)-2-propenoic acid]	494 nM	
O=C(O)CCc1ccc2c(c1)c(C(=O)c1ccccc1)cn2-c1ccccc1 [Example 4, 3-(3-benzoyl-1-phenyl-1H-indol-5-yl)propanoic acid]	146 nM	
O=C(O)/C=C/c1ccc2c(c1)c(Cc1ccccc1)cn2-c1ccccc1 [Example 7, (2E)-3-(3-benzyl-1-phenyl-1H-indol-5-yl)-2-propenoic acid]		1040 nM
O=C(O)CCc1ccc2c(c1)c(Cc1ccccc1)cn2-c1ccccc1 [Example 8, 3-(3-benzyl-1-phenyl-1H-indol-5-yl)propanoic acid]		182 nM
O=C(O)/C=C/c1ccc2c(c1)c(C(=O)Cc1ccccc1)cn2-c1ccccc1 [Example 11, (2E)-3-[1-phenyl-3-(phenylacetyl)-1H-indol-5-yl]-2-propenoic acid]	1910 nM	
O=C(O)CCc1ccc2c(c1)c(C(=O)Cc1ccccc1)cn2-c1ccccc1 [Example 12, 3-[1-phenyl-3-(phenylacetyl)-1H-indol-5-yl]propanoic acid]	261 nM	
O=C(O)/C=C/c1ccc2c(c1)c(CCc1ccccc1)cn2-c1ccccc1 [Example 15, (2E)-3-[1-phenyl-3-(2-phenylethyl)-1H-indol-5-yl]-2-propenoic acid]		316 nM
O=C(O)CCc1ccc2c(c1)c(CCc1ccccc1)cn2-c1ccccc1 [Example 16, 3-[1-phenyl-3-(2-phenylethyl)-1H-indol-5-yl]propanoic acid]		75 nM
N#CNC(=O)CCc1ccc2c(c1)c(CCc1ccccc1)cn2-c1ccccc1 [Example 18, N-cyano-3-[1-phenyl-3-(2-phenylethyl)-1H-indol-5-yl]propanamide]		976 nM
O=C(CCc1ccc2c(c1)c(CCc1ccccc1)cn2-c1ccccc1)Nc1nnn[nH]1 [Example 19, 3-[1-phenyl-3-(2-phenylethyl)-1H-indol-5-yl]-N-tetrazolylpropanamide]		10800 nM
O=C(CCc1ccc2c(c1)c(CCc1ccccc1)cn2-c1ccccc1)NO [Example 21, N-hydroxy-3-[1-phenyl-3-(2-phenylethyl)-1H-indol-5-yl]propanamide]		15800 nM
NC(=O)CCc1ccc2c(c1)c(CCc1ccccc1)cn2-c1ccccc1 [Example 22, 3-[1-phenyl-3-(2-phenylethyl)-1H-indol-5-yl]propanamide]		> 100000 nM
c1ccc(CCc2cn(-c3ccccc3)c3ccc(CCc4nnn[nH]4)cc23)cc1 [Example 24, 1-phenyl-3-(2-phenylethyl)-5-[2-(1H-tetrazol-5-yl)ethyl]-1H-indole]		12800 nM
CC(C(=O)c1cn(-c2ccccc2)c2ccc(/C=C/C(=O)O)cc12)c1ccccc1 (stereo not drawn) [Example 26, (2E)-3-[1-phenyl-3-(2-phenylpropanoyl)-1H-indol-5-yl]-2-propenoic acid]		3400 nM
CC(C(=O)c1cn(-c2ccccc2)c2ccc(CCC(=O)O)cc12)c1ccccc1 (stereo not drawn) [Example 27, 3-[1-phenyl-3-(2-phenylpropanoyl)-1H-indol-5-yl]propanoic acid 2-amino-2-(hydroxymethyl)propane-1,3-diol salt (1:1)]		385 nM
CC(Cc1cn(-c2ccccc2)c2ccc(CCC(=O)O)cc12)c1ccccc1 (stereo not drawn) [Example 28, 3-[1-phenyl-3-(2-phenylpropyl)-1H-indol-5-yl]propanoic acid 2-amino-2-(hydroxymethyl)propane-1,3-diol salt (1:1)]		258 nM
CC(Cc1cn(-c2ccccc2)c2ccc(CCC(N)=O)cc12)c1ccccc1 (stereo not drawn) [Example 29, 3-[1-phenyl-3-(2-phenylpropyl)-1H-indol-5-yl]propanamide]		21300 nM

SMILES	IC50	IC50 [1]
CC(Cc1cn(-c2ccccc2)c2ccc(/C=C/C(=O)O)cc12)c1ccccc1 (stereo not drawn) [Example 33, (2E)-3-[1-phenyl-3-(2-phenylpropyl)-1H-indol-5-yl]-2-propenoic acid]		662 nM
CCC(C(=O)c1cn(-c2ccccc2)c2ccc(/C=C/C(=O)O)cc12)c1ccccc1 (stereo not drawn) [Example 35, (2E)-3-[1-phenyl-3-(2-phenylbutanoyl)-1H-indol-5-yl]-2-propenoic acid]		5810 nM
CCC(C(=O)c1cn(-c2ccccc2)c2ccc(CCC(=O)O)cc12)c1ccccc1 (stereo not drawn) [Example 36, 3-[1-phenyl-3-(2-phenylbutanoyl)-1H-indol-5-yl]propanoic acid 2-amino-2-(hydroxymethyl)propane-1,3-diol salt (1:1)]		330 nM
CCC(Cc1cn(-c2ccccc2)c2ccc(CCC(=O)O)cc12)c1ccccc1 (stereo not drawn) [Example 37, 3-[1-phenyl-3-(2-phenylbutyl)-1H-indol-5-yl]propanoic acid 2-amino-2-(hydroxymethyl)propane-1,3-diol salt (1:1)]		1450 nM
O=C(O)/C=C/c1ccc2c(c1)c(C(=O)C1(c3ccccc3)CC1)cn2-c1ccccc1 [Example 39, (2E)-3-{1-phenyl-3-[(1-phenylcyclopropyl)carbonyl]-1H-indol-5-yl}-2-propenoic acid]		10800 nM
O=C(O)CCc1ccc2c(c1)c(C(=O)C1(c3ccccc3)CC1)cn2-c1ccccc1 [Example 40, 3-{1-phenyl-3-[(1-phenylcyclopropyl)carbonyl]-1H-indol-5-yl}propanoic acid]		2300 nM
O=C(O)CCc1ccc2c(c1)c(CC1(c3ccccc3)CC1)cn2-c1ccccc1 [Example 41, 3-{1-phenyl-3-[(1-phenylcyclopropyl)methyl]-1H-indol-5-yl}propanoic acid 2-amino-2-(hydroxymethyl)propane-1,3-diol salt (1:1)]		634 nM
Cc1c(C(=O)Cc2ccccc2)c2cc(/C=C/C(=O)O)ccc2n1-c1ccccc1 [Example 44, (2E)-3-[2-methyl-1-phenyl-3-(phenylacetyl)-1H-indol-5-yl]-2-propenoic acid]	421 nM	
Cc1c(C(=O)Cc2ccccc2)c2cc(CCC(=O)O)ccc2n1-c1ccccc1 [Example 45, 3-[2-methyl-1-phenyl-3-(phenylacetyl)-1H-indol-5-yl]propanoic acid]	225 nM	
O=C(O)/C=C/c1ccc2c(c1)c(C(=O)c1cccc3ccccc13)cn2-c1ccccc1 [Example 50, (2E)-3-[3-(1-naphthoyl)-1-phenyl-1H-indol-5-yl]-2-propenoic acid]	6990 nM	
O=C(O)CCc1ccc2c(c1)c(Cc1cccc3ccccc13)cn2-c1ccccc1 [Example 51, 3-[3-(1-naphthylmethyl)-1-phenyl-1H-indol-5-yl]propanoic acid]	704 nM	
O=C(O)/C=C/c1ccc2c(c1)c(C(=O)c1ccc3ccccc3c1)cn2-c1ccccc1 [Example 53, (2E)-3-[3-(2-naphthoyl)-1-phenyl-1H-indol-5-yl]-2-propenoic acid]	5520 nM	
O=C(O)CCc1ccc2c(c1)c(Cc1ccc3ccccc3c1)cn2-c1ccccc1 [Example 54, 3-[3-(2-naphthylmethyl)-1-phenyl-1H-indol-5-yl]propanoic acid]		6120 nM
O=C(O)/C=C/c1ccc2c(c1)c(C(=O)Cc1ccc(Cl)cc1)cn2-c1ccccc1 [Example 56, (2E)-3-{3-[(4-chlorophenyl)acetyl]-1-phenyl-1H-indol-5-yl}-2-propenoic acid]	6400 nM	
O=C(O)CCc1ccc2c(c1)c(C(=O)Cc1ccc(Cl)cc1)cn2-c1ccccc1 [Example 57, 3-{3-[(4-chlorophenyl)acetyl]-1-phenyl-1H-indol-5-yl}propanoic acid]	1390 nM	
O=C(O)CCc1ccc2c(c1)c(CCc1ccc(Cl)cc1)cn2-c1ccccc1 [Example 58, 3-{3-[2-(4-chlorophenyl)ethyl]-1-phenyl-1H-indol-5-yl}propanoic acid 2-amino-2-(hydroxymethyl)propane-1,3-diol salt (1:1)]		1160 nM

Source: patent US8293781B2, “Indole derivatives having cPLA2 inhibiting activity and applications and production methods of the same” (Daiichi Sankyo Company, Limited, priority 2007, dated 2012)
